Measured values from paper PMC2266582 (The Journal of General Physiology, 2005).
Like-named read-outs stand apart in the source and are kept apart here.

How the values were obtained:
KcsA tetramer [1] = target: T1, KcsA tetramer (Streptomyces lividans, UniProt P0A334); experiment: Tetramer protection titration of stabilizing cations against high temperature; format: binding; conditions: 100 mM choline Cl
T1 sequence (P0A334 1-160): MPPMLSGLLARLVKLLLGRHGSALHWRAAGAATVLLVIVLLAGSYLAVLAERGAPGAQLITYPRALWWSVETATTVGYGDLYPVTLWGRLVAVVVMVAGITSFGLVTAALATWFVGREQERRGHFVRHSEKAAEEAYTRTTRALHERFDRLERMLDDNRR

[2] = cited from earlier work; for Pauling crystal radii: ref Bezanilla and Armstrong, 1972, Armstrong, 2003
KcsA tetramer [3] = target: T1, KcsA tetramer; experiment: Temperature dependence of KcsA tetramer monitored by SDS-PAGE; conditions: for effect on temperature dependence of KcsA tetramer: 5 mM MgCl2 or 5 mM CaCl2 added to 100 mM choline Cl; for thermal stability of KcsA tetramer: 100 mM KCl or 100 mM NaCl, heated 10 min at 60–99°C
KcsA tetramer [4] = target: T1, KcsA tetramer; experiment: Time course of decay of KcsA tetramer at 90°C; format: binding
KcsA tetramer [5] = target: T1, KcsA tetramer; format: binding
[6] = values determined by Pauling, ref Hille (2001)
[7] = K0.5 (cation concentration at half-maximal stabilization), fit to Eq. 1, heated 10 min at 90°C, 10 mM Hepes-Tris pH 7.4

## [Ba+2] [Ba^2+, BaCl2]
KcsA tetramer [1]; K0.5 of tetramer protection titration, heated 10 min at 90°C
  EC50: 0.21 µM
[2]; [6]
  Radius: 1.35 Å

## [Ca+2].[Cl-].[Cl-] [Ca^2+, CaCl2]
KcsA tetramer [3]
  effect on temperature dependence of KcsA tetramer: small protective effect at temperatures >60 °C

## [Cs+] [Cs^+, CsCl]
KcsA tetramer [1]; [7]
  EC50: 4100 ± 3500 µM
[2]; [6]
  Radius: 1.69 Å

## [K+] [K^+, KCl]
KcsA tetramer [3]
  thermal stability of KcsA tetramer: fully stable
KcsA tetramer [1]; [7]
  EC50: 1500 ± 2500 µM
KcsA tetramer [4]; 0.1 mM K^+ added to 100 mM choline Cl, 90°C
  time course of tetramer denaturation: complex slower biphasic decay
KcsA tetramer [4]; 100 mM KCl, 30 min of incubation at 90°C
  loss of tetramer: virtually no loss of tetramer
[2]
  Pauling crystal radii: 1.33 Å
[2]; [6]
  Radius: 1.33 Å

## [Li+] [Li^+, LiCl]
KcsA tetramer [5]
  IC50: 57000 µM

## [Cl-].[Cl-].[Mg+2] [Mg^2+, MgCl2]
KcsA tetramer [3]
  effect on temperature dependence of KcsA tetramer: destabilize KcsA at lower temperatures

## N [NH4 ^+, NH4Cl]
[2]; estimated by a molecular graphics approach, ref Sun et al. (1997)
  Radius: 1.8 Å

## [Na+] [Na^+, NaCl]
KcsA tetramer [3]
  thermal stability of KcsA tetramer: progressively lost at temperatures >65 °C
[2]
  Pauling crystal radii: 0.95 Å

## [Rb+] [Rb^+, RbCl]
KcsA tetramer [1]; [7]
  EC50: 1700 ± 3300 µM
[2]; [6]
  Radius: 1.48 Å

## [Sr+2] [Sr^2+, SrCl2]
KcsA tetramer [1]; K0.5 of tetramer protection titration, heated 10 min at 85°C
  EC50: 11 µM
[2]; [6]
  Radius: 1.13 Å

## [Tl+] [Tl^+, Tl acetate]
KcsA tetramer [1]; [7]
  EC50: 1100 µM
[2]; [6]
  Radius: 1.40 Å

## C[N+](C)(C)CCO.[Cl-] [choline^+, choline Cl]
KcsA tetramer [4]; 100 mM choline Cl, absence of K^+, 90°C
  time constant of single exponential decay of tetramer: 16.5 s
